Source: patent US10227329B2, “Compounds useful for treating disorders related to RET” (BLUEPRINT MEDICINES CORPORATION, priority 2016, dated 2019)

Assays:
[1] = molecular target: RET V804L (Homo sapiens (Human), UniProt P07949, V804L); test: RET V804L Gatekeeper Mutant Assay at KM (Caliper electrophoretic mobility shift); type: biochemical; details: 10 μM ATP (KM), read-out: V480L Mutant
[2] = molecular target: wild type RET (Homo sapiens (Human), UniProt P07949); test: RET Wild Type Assay at KM (Caliper electrophoretic mobility shift); type: biochemical; details: 25 μM ATP (KM)
wild type RET, sequence (P07949 29-1114): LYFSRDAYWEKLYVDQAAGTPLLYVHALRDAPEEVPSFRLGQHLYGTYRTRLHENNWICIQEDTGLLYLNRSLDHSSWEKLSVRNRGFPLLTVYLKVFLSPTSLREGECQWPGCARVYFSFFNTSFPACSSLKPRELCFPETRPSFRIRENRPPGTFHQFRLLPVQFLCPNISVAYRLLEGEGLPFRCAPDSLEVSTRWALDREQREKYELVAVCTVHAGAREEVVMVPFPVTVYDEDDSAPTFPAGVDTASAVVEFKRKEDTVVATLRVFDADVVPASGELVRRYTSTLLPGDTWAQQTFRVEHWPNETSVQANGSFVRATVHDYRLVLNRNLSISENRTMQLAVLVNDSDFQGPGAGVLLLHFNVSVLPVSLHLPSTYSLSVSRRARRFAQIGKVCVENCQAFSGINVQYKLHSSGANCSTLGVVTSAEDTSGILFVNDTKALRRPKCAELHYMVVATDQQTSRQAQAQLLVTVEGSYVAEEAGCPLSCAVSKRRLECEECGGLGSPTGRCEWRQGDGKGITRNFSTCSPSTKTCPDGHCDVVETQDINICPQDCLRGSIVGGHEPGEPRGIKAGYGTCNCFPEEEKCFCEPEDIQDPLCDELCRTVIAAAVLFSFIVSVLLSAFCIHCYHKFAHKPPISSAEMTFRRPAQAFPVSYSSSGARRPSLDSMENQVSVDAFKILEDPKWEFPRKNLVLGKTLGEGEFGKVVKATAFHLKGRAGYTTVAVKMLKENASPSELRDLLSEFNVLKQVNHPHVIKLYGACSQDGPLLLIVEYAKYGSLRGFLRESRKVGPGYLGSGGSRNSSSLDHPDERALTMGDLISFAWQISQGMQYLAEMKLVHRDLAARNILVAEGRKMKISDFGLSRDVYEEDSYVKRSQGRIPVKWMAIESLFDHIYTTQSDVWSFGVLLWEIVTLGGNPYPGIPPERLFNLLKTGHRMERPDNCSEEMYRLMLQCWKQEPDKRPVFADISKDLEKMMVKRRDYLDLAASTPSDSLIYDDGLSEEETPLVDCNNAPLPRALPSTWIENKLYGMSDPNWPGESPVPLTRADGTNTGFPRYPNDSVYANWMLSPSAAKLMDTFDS

RET V804L, sequence (P07949 29-1114 V804L): as the sequence (P07949 29-1114) above, with V776L counted along it

SMILES | IC50 [1] [µM] | IC50 [2] [µM]
CCOC1(C(=O)N[C@@H](C)c2ccc(-n3cc(F)cn3)nc2)CN(c2cc(C)cc(Nc3cc(C)[nH]n3)n2)C1 [Compound 194, (S)-3-ethoxy-N-(1-(6-(4-fluoro-1H-pyrazol-1-yl)pyridin-3-yl)ethyl)-1-(4-methyl-6-((5-methyl-1H-pyrazol-3-yl)amino)pyridin-2-yl)azetidine-3-carboxamide] | < 0.01 | < 0.01
COC1(C(=O)NCc2ccc(-n3cc(F)cn3)nc2)CCN(c2nc(C)cc(Nc3cc(C)[nH]n3)n2)CC1 [Compound 195] | < 0.01 | < 0.01
COC1(C(=O)N[C@@H](C)c2ccc(-n3cc(F)cn3)nc2)CCN(c2nccc(Nc3cc(C)[nH]n3)n2)CC1 [Compound 196] | < 0.01 | < 0.01
CCOC1(C(=O)N[C@@H](C)c2ccc(-n3cc(F)cn3)nc2)CN(c2nc(C)cc(Nc3cc(C)[nH]n3)n2)C1 [Compound 197] | < 0.01 | < 0.01
CO[C@@]1(C(=O)N[C@@H](C)c2ccc(-n3cc(F)cn3)nc2)CN(c2nc(C)cc(Nc3cc(C)[nH]n3)n2)[C@@H]1C [Compound 198] | < 0.01 | < 0.01
CO[C@]1(C(=O)N[C@@H](C)c2ccc(-n3cc(F)cn3)nc2)CN(c2nc(C)cc(Nc3cc(C)[nH]n3)n2)[C@H]1C [Compound 199] | < 0.01 | < 0.01
Cc1cc(Nc2cc(C)[nH]n2)nc(N2CCC(F)(C(=O)N[C@@H](C)c3ccc(-n4cc(F)cn4)nc3)CC2)c1 [Compound 200] | < 0.01 | < 0.01
COC1(C(=O)N[C@@H](C)c2ccc(-n3cccn3)nc2)CN(c2cc(C(F)F)cc(Nc3cc(C)[nH]n3)n2)C1 [Compound 201] | < 0.01 | < 0.01
COC1(C(=O)N[C@@H](C)c2ccc(-n3cc(F)cn3)nc2)CN(c2nc(Nc3cc(C)[nH]n3)cc(C)c2F)C1 [Compound 202] | < 0.01 | < 0.01
COC1(C(=O)NCc2ccc(-n3cc(C(F)F)cn3)nc2)CN(c2nc(C)cc(Nc3cc(C)[nH]n3)n2)C1 [Compound 203] | 0.01 to 0.1 | 0.01 to 0.1
COC1(C(=O)NCc2cnc(-n3ccc(C(F)F)n3)cn2)CN(c2nc(C)cc(Nc3cc(C)[nH]n3)n2)C1 [Compound 205] | < 0.01 | 0.01 to 0.1
Cc1cc(Nc2cc(C)[nH]n2)nc(N2CCC(CC#N)(C(=O)N[C@@H](C)c3ccc(-n4cccn4)nc3)CC2)n1 [Compound 206] | < 0.01 | < 0.01
COC1(C(=O)NCc2ccc(-n3cccn3)nc2)CCN(c2nc(Nc3cc(C)[nH]n3)cc(C)c2C#N)CC1 [Compound 207] | < 0.01 | < 0.01
COC1(C(=O)NCc2ccc(-n3cc(F)cn3)nc2)CN(c2cc(C(F)F)cc(Nc3cc(C)[nH]n3)n2)C1 [Compound 208] | < 0.01 | < 0.01
CCC1(C(=O)NCc2ccc(-n3nc(C)cc3C)nc2)CCN(c2nc(C)cc(Nc3cc(C)[nH]n3)n2)CC1 [Compound 209] | < 0.01 | < 0.01
Cc1cc(Nc2cc(C(F)F)cc(N3CC(F)(C(=O)N[C@@H](C)c4ccc(-n5cc(F)cn5)nc4)C3)n2)n[nH]1 [Compound 210] | < 0.01 | < 0.01
COC1(C(=O)NCc2ccc(-n3nc(C)cc3C)nc2)CCN(c2cc(C)cc(Nc3cc(C)[nH]n3)n2)CC1 [Compound 211] | < 0.01 | < 0.01
COC1(C(=O)N[C@@H](C)c2ccc(-n3cc(F)cn3)nc2)CN(c2nc(Nc3cc(C)[nH]n3)cc(C)c2C#N)C1 [Compound 212] | < 0.01 | < 0.01
COCCC1(C(=O)NCc2ccc(-n3cccn3)nc2)CCN(c2nc(C)cc(Nc3cc(C)[nH]n3)n2)CC1 [Compound 213] | < 0.01 | < 0.01

Now from value to compound:

IC50 [1] [µM] | IC50 [2] [µM] | SMILES
< 0.01 | < 0.01 | COC1(C(=O)N(C)[C@@H](C)c2ccc(-n3cccn3)nc2)CCN(c2nc(C)cc(Nc3cc(C)[nH]n3)n2)CC1 [Compound 214]
< 0.01 | < 0.01 | COC1(C(=O)NCc2ccc(-n3nc(C)cc3C)nc2)CCN(c2nc(C)cc(Nc3cc(C)[nH]n3)n2)CC1 [Compound 215]
< 0.01 | < 0.01 | COC1(C(=O)N[C@@H](C)c2ccc(-n3cc(F)cn3)nc2)CCN(c2cc(C)cc(Nc3cc(C)[nH]n3)n2)CC1 [Compound 216]
< 0.01 | < 0.01 | Cc1cc(Nc2cc(C)[nH]n2)nc(N2CCC(CO)(C(=O)N[C@@H](C)c3ccc(-n4cc(F)cn4)nc3)CC2)c1 [Compound 217]
< 0.01 | < 0.01 | Cc1cc(Nc2cc(C)[nH]n2)nc(N2CCC(CO)(C(=O)N[C@@H](C)c3ccc(-n4cc(F)cn4)nc3)CC2)n1 [Compound 219]
< 0.01 | < 0.01 | COC1(C(=O)N[C@@H](C)c2ccc(-n3cc(F)cn3)nc2)CCN(c2cc(C)nc(Nc3cc(C)[nH]n3)n2)CC1 [Compound 220]
< 0.01 | < 0.01 | COC1(C(=O)N[C@@H](C)c2cnc(-n3cc(F)cn3)cn2)CCN(c2nc(C)cc(Nc3cc(C)[nH]n3)n2)CC1 [Compound 221]
< 0.01 | < 0.01 | COC1(C(=O)N[C@@H](C)c2ccc(-n3cccn3)nc2)CCN(c2nc(Nc3cc(C)[nH]n3)cc(C)c2C#N)CC1 [Compound 222]
< 0.01 | < 0.01 | COC1(C(=O)N[C@@H](C)c2ccc(-n3cc(F)cn3)nc2)CN(c2cc(C(F)F)cc(Nc3cc(C)[nH]n3)n2)C1 [Compound 223]
< 0.01 | < 0.01 | Cc1cc(N2CCC(CC#N)(C(=O)N[C@@H](C)c3ccc(-n4cc(F)cn4)nc3)CC2)nc(Nc2cc(C)[nH]n2)n1 [Compound 224]
< 0.01 | < 0.01 | Cc1cc(Nc2cc(C3CC3)[nH]n2)nc(N2CCC(C)(C(=O)N[C@@H](C)c3ccc(-n4cc(F)cn4)nc3)CC2)c1 [Compound 225]
< 0.01 | < 0.01 | COC1(C(=O)NCc2ccc(-n3cc(F)cn3)nc2)CCN(c2nc(Nc3cc(C)[nH]n3)cc(C)c2C#N)CC1 [Compound 226]
< 0.01 | < 0.01 | COC1(C(=O)N[C@@H](C)c2ccc(-n3cc(F)cn3)nc2)CCN(c2nc(Nc3cc(C)[nH]n3)cc(C)c2C#N)CC1 [Compound 227]
< 0.01 | < 0.01 | Cc1cc(Nc2cc(C)[nH]n2)nc(N2CCC(OCC(F)(F)F)(C(=O)NCc3ccc(-n4cccn4)nc3)CC2)n1 [Compound 228]
